# Results from patent US20240033256A1, “INHIBITORS OF POSITIVE STRAND RNA VIRUSES” (priority 2020, published 2024).
# Read-outs that look alike come from different tables or passages of the source.
# How the values were obtained:
# Zika virus = Zika virus IFA assay (E protein) in Vero E6 cells; assay type: cell-based; details: read-out: EC50 (Zika virus)
# Procedure: Compounds 1-9 were evaluated for their inhibitory activities against Zika virus using an IFA assay, which targeted Zika virus Envelope (“E”) protein.
# (§1) Vero E6 cells (BCRC #60476, Bioresource Collection and Research Center, Hsinchu, Taiwan) were treated with one of Compounds 1-9 at a predetermined concentration for 1 hour at 37° C. The cells were adsorbed with Zika virus (ATCC VR-1843, American Type Culture Collection, Manassas, VA, USA) at MOI=0.02 for 49 hours at 37° C. The cells were fixed with 10% formalin, permeabilized with methanol. The cells were stained with anti-flavivirus E antibody (ATCC HB-112, American Type Culture Collection, Manassas, VA, USA) and anti-mouse IgG-FITC (MP Biomedicals, Irvine, CA, USA). The nuclei were counter stained with DAPI (in blue) (Thermo Fisher Scientific, MA, USA). The E protein expression was measured using a high-content image analysis system (Molecular Devices). The cell viability was determined by MTS. Both EC50 and CC50 were calculated by Prism software.
# [1] = Vero E6 cell viability by MTS (Zika study); assay type: cell-based; details: African green monkey, Vero E6 cells
# Procedure: as §1
# (§2) Their cytotoxic effects were also determined by the MTS assay described above using Vero E6 cells.
# Dengue virus type 1 = Dengue virus type 1 IFA assay (E protein) in Vero E6 cells; assay type: cell-based; details: MOI 0.002, 5 days at 33° C, read-out: DV1 EC50
# Procedure: (§3) Compounds 1-9 were evaluated for their inhibitory activities against Dengue virus, another single positive-stranded RNA virus belonging to genus of flavivirus, using an IFA assay that targeted the Dengue virus Envelope (“E”) protein.
# (§4) Vero E6 cells (BCRC #60476, Bioresource Collection and Research Center, Hsinchu, Taiwan) were treated with one of Compounds 1-9 at a predetermined concentration for 1 hour at 37° C. The cells were infected with Dengue virus type 1 (“DV1”, ATCC VR-1856, American Type Culture Collection, Manassas, VA, USA) at MOI=0.002 or Dengue virus type 2 (“DV2”, ATCC VR-1584, American Type Culture Collection, Manassas, VA, USA) at MOI=0.02, both for 5 days at 33° C. They were then fixed with 10% formalin and permeabilized with methanol. Subsequently, the cells were stained with anti-flavivirus E antibody (ATCC HB-112, American Type Culture Collection, Manassas, VA, USA) and anti-mouse IgG-FITC (MP Biomedicals, Irvine, CA, USA). The nuclei of the cells were counter stained with DAPI (Thermo Fisher Scientific, MA, USA). The E protein expression was measured by using a high-content image analysis system (Molecular Devices). The cell viability was determined by MTS. EC50 and CC50 were calculated by Prism software.
# Dengue virus type 2 = Dengue virus type 2 IFA assay (E protein) in Vero E6 cells; assay type: cell-based; details: MOI 0.02, 5 days at 33° C, read-out: DV2 EC50
# Procedure: as §3, §4
# [2] = Vero E6 cell viability by MTS (Dengue study); assay type: cell-based; details: African green monkey, Vero E6 cells
# Procedure: as §4
# Vero E6 cells [3] = assay: Vero E6 cell viability by MTS (Zika study); assay type: cell-based
# Procedure: as §1, §2
# Vero E6 cells [4] = assay: Vero E6 cell viability by MTS (Dengue study); assay type: cell-based
# Procedure: as §4
# SARS-CoV-2 [5] = assay: SARS-CoV-2 cytopathic effect (CPE) by visualization in infected Vero E6 cells; assay type: cell-based; details: Severe acute respiratory syndrome coronavirus 2, Vero C1008, read-out: SARS-CoV-2 inhibition EC50, CPE
# Procedure: Compounds 1-3 were examined for their inhibitory activity against SARS-CoV-2 in Vero E6 cells. Cytopathic effects (“CPE”) of SARS-CoV-2 infected Vero E6 cells, with treatment of compounds in 2-fold dilution at a series of 12 concentrations, were visualized. EC50 and CC50 values were calculated.
# SARS-CoV-2 [6] = assay: SARS-CoV-2 immunofluorescence assay (IFA), N protein expression in Vero E6 cells; assay type: cell-based
# Procedure: Vero E6 cells derived from BCRC #60476 (Bioresource Collection and Research Center, Hsinchu, Taiwan) were treated with each compound at an indicated concentration for 1 hour at 37° C. The cells were adsorbed with SARS-CoV-2 viruses (TCDC #4, National Taiwan University, Taipei, Taiwan, ROC) at multiplicity of infection (“MOI”) of 0.01 for 1 hour at 37° C. After virus adsorption, the cells were washed with phosphate-buffered saline (“PBS”). A fresh medium containing the compound was added at an indicated concentration. The resultant mixture was incubated for 2 days. The cells were fixed with 4% paraformaldehyde and permeabilized with a 0.5% Triton™ X-100 detergent solution (Thermo Fisher Scientific, Waltham, MA). Subsequently, they were stained with an anti-SARS-CoV-2 N protein antibody and anti-human IgG-488 (in green). The nuclei of the cells were counter stained with 4′,6-diamidino-2-phenylindole (“DAPI”, Thermo Fisher Scientific, MA, USA). The N protein expression was measured using a high-content image analysis system (Molecular Devices, San Jose, CA). The cell viability was determined by Cell Counting Kit-8 (Sigma-Aldrich, St. Louis, MO) EC50 and CC50 values were calculated by Prism software. […] Both EC50 and CC50 are measured in molar units, e.g., mol/L (“M”), μmol/L (“μM”), and nmol/L (“nM”).
# HCoV-OC43 = HCoV-OC43 IFA assay (N protein) in HCT-8 cells; assay type: cell-based
# [7] = HCT-8 cell viability (MTS); details: human, HCT-8 cells
# HCoV-229E = HCoV-229E cytopathic effect / end point assay by TCID50 with crystal violet in MRC5 cells; details: Human coronavirus 229E, MRC5, read-out: EC50 (HCoV-229E)
# Procedure: An end point assay by TCID50 was performed. Crystal violet was used to stain live cells to determine the EC50 of each compound. Further, CC50 and selective index were calculated.
# SARS-CoV-2 [8] = assay: SARS-CoV-2 plaque assay in Vero E6 cells; assay type: cell-based; details: Severe acute respiratory syndrome coronavirus 2, Vero C1008
# Procedure: The assay was performed in triplicate in 24-well tissue culture plates. Vero E6 cells were seeded in Dulbecco's modified Eagle's medium (“DMEM”) with 10% Fetal Bovine Serum (“FBS”, Biological Industries, Kibbutz, Israel) and antibiotics one day before infection. SARS-CoV-2 viruses were added to the cell monolayer and allowed to sit for 1 hour at 37° C. After viruses were removed, the cell monolayer was washed once with PBS before covering with media containing agarose or methylcellulose for 5-7 days. The cells were fixed with 3.7% formaldehyde overnight followed by removal of overlay media. They were then stained with crystal violet to count the plaque-forming units (“PFU”). The percentage of inhibition was calculated as [1−(VD/VC)]×100%, where VD and VC refer to the virus titer in the presence and absence of a test compound, respectively.
# [9] = Vero E6 cells, MOI 0.02, 49 hours
# [10] = Zika virus, Vero C1008, 49 h, Vero E6 cells, MOI 0.02, 49 hours
# [11] = Dengue virus, Vero C1008, 120 h
# [12] = Severe acute respiratory syndrome coronavirus 2, Vero C1008, 48 h, Vero E6 cells, MOI 0.01, 2 days, run 1, read-out: SARS-CoV-2 inhibition EC50, IFA-1
# [13] = Severe acute respiratory syndrome coronavirus 2, Vero C1008, 48 h, Vero E6 cells, MOI 0.01, 2 days, run 2, read-out: SARS-CoV-2 inhibition EC50, IFA-2
# [14] = Severe acute respiratory syndrome coronavirus 2, Vero C1008, IFA, range over Compounds 1, 2 and 3, read-out: EC50 against SARS-CoV-2 (range given)
# [15] = Betacoronavirus 1, OC43, HCT-8 cells, MOI 0.05, means ± S.D. from three independent experiments, read-out: EC50 (HCoV-OC43)
SMILES,CC50 [1],CC50 [2],EC50 (Zika virus; [10]),EC50 (Dengue virus type 1; [11]),EC50 (Dengue virus type 2; [11]),EC50 (SARS-CoV-2 [5]),EC50 (SARS-CoV-2 [6]; [12]),EC50 (SARS-CoV-2 [6]; [13]),EC50 (SARS-CoV-2 [6]; [14]),EC50 (HCoV-OC43; [15]),CC50 [7],EC50 (HCoV-229E),further results
"CCN1Cc2c(c3cc(OC)c(OC)cc3c3cc(OC)c(OC)cc23)C(O)C1 (single isomer, unassigned) [Compound 7]",> 5 µM,> 5 µM,,,,,,,,,,,EC50 (Zika virus; [9]): 0.0444 µM; EC50 (Dengue virus type 1): 0.0731 µM; EC50 (Dengue virus type 2): 0.124 µM
"CCN1Cc2c(c3cc(OC)c(OC)cc3c3cc(OC)c(OC)cc23)C(O)C1 (single isomer, unassigned) [Compound 9]",,,,,,,,,,,,,EC50 (Zika virus; [9]): 0.144 µM; CC50 (Vero E6 cells [3]): > 5 µM; EC50 (Dengue virus type 1): 0.296 µM; EC50 (Dengue virus type 2): 0.616 µM; CC50 (Vero E6 cells [4]): > 5 µM
CCCN1Cc2c(c3cc(OC)c(OC)cc3c3cc(OC)c(OC)cc23)C(O)C1 (stereo not drawn) [Compound 8],> 5 µM,> 5 µM,0.304 µM,0.247 µM,0.617 µM,,,,,,,,
CCN1Cc2c(c3ccc(OC)cc3c3cc(OC)c(OC)cc23)C(O)C1C (stereo not drawn) [Compound 3],> 5 µM,> 5 µM,0.0159 µM,0.0196 µM,0.029 µM,0.02 µM,0.0316 µM,0.0319 µM,0.009 to 0.077 µM,0.0559 ± 0.0062 µM,> 10 µM,0.0254 ± 0.0031 µM,
COc1cc2c3c(c4cc(OC)c(OC)cc4c2cc1OC)C[N+]1([O-])CCCC1C3 (stereo not drawn) [Compound 6],> 5 µM,> 5 µM,1.04 µM,1.64 µM,2.64 µM,,,,,1.89 ± 0.228 µM,> 10 µM,,"Selectivity index (HCoV-OC43) (HCoV-OC43; CC50/EC50, HCT-8 cells): >5.3"
CCN1Cc2c(c3ccc(OC)cc3c3cc(OC)c(OC)cc23)C(O)C1 (stereo not drawn) [Compound 2],> 5 µM,> 5 µM,0.0153 µM,0.0043 µM,0.0047 µM,0.0025 µM,0.0091 µM,0.0139 µM,0.009 to 0.077 µM,0.0164 ± 0.0047 µM,> 10 µM,0.0065 ± 0.001 µM,"EC50 (SARS-CoV-2 [8]; Vero E6 cells, run 1, read-out: SARS-CoV-2 inhibition EC50, Plaque assay-1): 0.0108 µM; EC50 (SARS-CoV-2 [8]; Vero E6 cells, run 2, read-out: SARS-CoV-2 inhibition EC50, Plaque assay-2): 0.0138 µM; EC50 (SARS-CoV-2 [8]; infected Vero E6 cells, four measurements, read-out: EC50 against SARS-CoV-2, plaque assay, all four measurements): 0.011 to 0.014 µM"
"COc1cc2c3c(c4cc(OC)c(OC)cc4c2cc1OC)CN1CCC[C@H]1C3 [Compound 1, (13as)-2,3,6,7-tetramethoxy-9,11,12,13,13a,14-hexahydrophenanthro[9,10-f] indolizine]",> 5 µM,> 5 µM,,0.0184 µM,0.0325 µM,0.078 µM,0.064 µM,0.0768 µM,0.009 to 0.077 µM,,> 10 µM,0.0714 ± 0.0132 µM,"EC50 (HCoV-OC43; Betacoronavirus 1, OC43, HCT-8, read-out: EC50 (HCoV-OC43)): 0.068 ± 0.0027 µM; EC50 (Zika virus; Zika virus, Vero C1008, 49 h): 0.0614 µM"
CCN1CCc2c(c3cc(OC)c(OC)cc3c3cc(OC)ccc23)C1 [Compound 5],> 5 µM,> 5 µM,0.156 µM,0.131 µM,0.286 µM,,,,,,> 10 µM,,
COc1cc2c3c(c4cc(OC)c(OC)cc4c2cc1OC)CN1CCCCC1C3 (stereo not drawn) [Compound 4],> 5 µM,> 5 µM,0.0133 µM,0.0076 µM,0.0083 µM,,,,,0.0517 ± 0.0061 µM,> 10 µM,,
